Converted amounts (≈) assume the structure as drawn. Non-standard residues stand in square brackets, D forms with d. Residues, ends and D or L forms follow the SMILES beside them. *: point of attachment. Palmitoyl = CCCCCCCCCCCCCCCC(=O)*; Aib = CC(C)(N)C(=O)O
Assay: Solubility of peptides in buffer
Type: physicochemical
Details: Table 3; 80 mM AmBicarb pH 7.7; unit not given

Structure (SMILES)	Solubility 80 mM AmBicarb pH 7.7
CCCCCCCCCCCCCCCC(=O)NCCCC[C@H](NC(=O)[C@H](CO)NC(=O)[C@@H]1CCCN1C(=O)[C@@H]1CCCN1C(=O)[C@@H]1CCCN1C(=O)[C@H](C)NC(=O)CNC(=O)[C@H](CO)NC(=O)[C@H](CO)NC(=O)[C@@H]1CCCN1C(=O)CNC(=O)CNC(=O)[C@H](CCCNC(=N)N)NC(=O)[C@@H](NC(=O)[C@H](CC(C)C)NC(=O)[C@H](Cc1c[nH]c2ccccc12)NC(=O)[C@H](CCC(=O)O)NC(=O)[C@@H](NC(=O)[C@H](Cc1ccccc1)NC(=O)[C@H](CCC(=O)O)NC(=O)[C@H](CCCNC(=N)N)NC(=O)[C@@H](NC(=O)[C@H](C)NC(=O)[C@H](CCC(=O)O)NC(=O)[C@H](CCC(=O)O)NC(=O)[C@H](CCC(=O)O)NC(=O)[C@H](CC(C)C)NC(=O)[C@H](Cc1ccc(O)cc1)NC(=O)[C@H](CO)NC(=O)[C@H](CO)NC(=O)[C@@H](NC(=O)[C@@H](N)CC(=O)O)C(C)C)C(C)C)[C@@H](C)CC)C(C)C)C(N)=O [SEQ ID NO: 72] (H-DVSSYLEEEAVREFIEWLVRGGPSSGAPPPSK(Palmitoyl)-NH2; N-terminus assumed)	>20
CCCCCCCCCCCCCCCC(=O)NCCCC[C@H](NC(=O)[C@H](CO)NC(=O)[C@@H]1CCCN1C(=O)[C@@H]1CCCN1C(=O)[C@@H]1CCCN1C(=O)[C@H](C)NC(=O)CNC(=O)[C@H](CO)NC(=O)[C@H](CO)NC(=O)[C@@H]1CCCN1C(=O)CNC(=O)CNC(=O)[C@H](CCCNC(=N)N)NC(=O)[C@@H](NC(=O)[C@H](CC(C)C)NC(=O)[C@H](Cc1c[nH]c2ccccc12)NC(=O)[C@H](CCC(=O)O)NC(=O)[C@@H](NC(=O)[C@H](Cc1ccccc1)NC(=O)[C@H](CCC(=O)O)NC(=O)[C@H](CCCNC(=N)N)NC(=O)[C@@H](NC(=O)[C@H](C)NC(=O)[C@H](CCC(=O)O)NC(=O)[C@H](CCC(=O)O)NC(=O)[C@H](CCC(=O)O)NC(=O)[C@H](CC(C)C)NC(=O)[C@H](Cc1ccc(O)cc1)NC(=O)[C@H](CCCNC(=N)N)NC(=O)[C@H](CO)NC(=O)[C@@H](NC(=O)[C@@H](N)CC(=O)O)C(C)C)C(C)C)[C@@H](C)CC)C(C)C)C(N)=O [SEQ ID NO: 75] (H-DVSRYLEEEAVREFIEWLVRGGPSSGAPPPSK(Palmitoyl)-NH2)	18.5
CCCCCCCCCCCCCCCC(=O)NCCCC[C@H](NC(=O)[C@H](CO)NC(=O)[C@@H]1CCCN1C(=O)[C@@H]1CCCN1C(=O)[C@@H]1CCCN1C(=O)[C@H](C)NC(=O)CNC(=O)[C@H](CO)NC(=O)[C@H](CO)NC(=O)[C@@H]1CCCN1C(=O)CNC(=O)CNC(=O)[C@H](CCCNC(=N)N)NC(=O)[C@@H](NC(=O)[C@H](CC(C)C)NC(=O)[C@H](Cc1c[nH]c2ccccc12)NC(=O)[C@H](C)NC(=O)[C@@H](NC(=O)[C@H](Cc1ccccc1)NC(=O)[C@H](CCC(=O)O)NC(=O)[C@H](CCCNC(=N)N)NC(=O)[C@@H](NC(=O)[C@H](C)NC(=O)[C@H](CCC(=O)O)NC(=O)[C@H](CCC(=O)O)NC(=O)[C@H](CCC(=O)O)NC(=O)[C@H](CC(C)C)NC(=O)[C@H](Cc1ccc(O)cc1)NC(=O)[C@H](CO)NC(=O)[C@H](CO)NC(=O)[C@@H](NC(=O)[C@@H](N)CC(=O)O)C(C)C)C(C)C)[C@@H](C)CC)C(C)C)C(N)=O [SEQ ID NO: 71] (H-DVSSYLEEEAVREFIAWLVRGGPSSGAPPPSK(Palmitoyl)-NH2; N-terminus assumed)	>20

Same assay, conditions: pH 7.4

Structure (SMILES)	solubility [µg/mL]
CCCCCCCCCCCCCCCC(=O)NCCCC[C@H](NC(=O)[C@H](CO)NC(=O)[C@@H]1CCCN1C(=O)[C@@H]1CCCN1C(=O)[C@@H]1CCCN1C(=O)[C@H](C)NC(=O)CNC(=O)[C@H](CO)NC(=O)[C@H](CO)NC(=O)[C@@H]1CCCN1C(=O)CNC(=O)CNC(=O)[C@H](CCCCN)NC(=O)[C@@H](NC(=O)[C@H](CC(C)C)NC(=O)[C@H](Cc1c[nH]c2ccccc12)NC(=O)[C@H](C)NC(=O)[C@@H](NC(=O)[C@H](Cc1ccccc1)NC(=O)[C@H](CCC(=O)O)NC(=O)[C@H](CCCNC(=N)N)NC(=O)C(C)(C)NC(=O)[C@H](C)NC(=O)[C@H](CCC(N)=O)NC(=O)[C@H](CCC(=O)O)NC(=O)[C@H](CCC(=O)O)NC(=O)[C@H](CC(C)C)NC(=O)[C@H](Cc1ccc(O)cc1)NC(=O)[C@H](CO)NC(=O)[C@H](CO)NC(=O)[C@@H](NC(=O)[C@@H](N)CC(=O)O)C(C)C)[C@@H](C)CC)C(C)C)C(N)=O [SEQ ID NO: 45] (H-DVSSYLEEQA[Aib]REFIAWLVKGGPSSGAPPPSK(Palmitoyl)-NH2; N-terminus assumed)	400 (≈ 110 µM)
CCCCCCCCCCCCCCCC(=O)NCCCC[C@H](NC(=O)[C@H](CO)NC(=O)[C@@H]1CCCN1C(=O)[C@@H]1CCCN1C(=O)[C@@H]1CCCN1C(=O)[C@H](C)NC(=O)CNC(=O)[C@H](CO)NC(=O)[C@H](CO)NC(=O)[C@@H]1CCCN1C(=O)CNC(=O)CNC(=O)C(C)(C)NC(=O)[C@H](CCCCN)NC(=O)[C@H](CC(C)C)NC(=O)[C@H](Cc1c[nH]c2ccccc12)NC(=O)[C@H](C)NC(=O)[C@@H](NC(=O)[C@H](Cc1ccccc1)NC(=O)[C@H](CCC(=O)O)NC(=O)[C@H](CCCNC(=N)N)NC(=O)[C@@H](NC(=O)[C@H](C)NC(=O)[C@H](CCC(N)=O)NC(=O)[C@H](CCC(=O)O)NC(=O)[C@H](CCC(=O)O)NC(=O)[C@H](CC(C)C)NC(=O)[C@H](Cc1ccc(O)cc1)NC(=O)[C@H](CO)NC(=O)[C@H](CO)NC(=O)[C@@H](NC(=O)[C@@H](N)CC(=O)O)C(C)C)C(C)C)[C@@H](C)CC)C(N)=O [SEQ ID NO: 43]	200 (≈ 55.2 µM)
CCCCCCCCCCCCCCCC(=O)NCCCC[C@H](NC(=O)[C@H](CO)NC(=O)[C@@H]1CCCN1C(=O)[C@@H]1CCCN1C(=O)[C@@H]1CCCN1C(=O)[C@H](C)NC(=O)CNC(=O)[C@H](CO)NC(=O)[C@H](CO)NC(=O)[C@@H]1CCCN1C(=O)CNC(=O)CNC(=O)[C@H](CCCCN)NC(=O)[C@@H](NC(=O)[C@H](CC(C)C)NC(=O)[C@H](Cc1c[nH]c2ccccc12)NC(=O)[C@H](C)NC(=O)[C@@H](NC(=O)[C@H](Cc1ccccc1)NC(=O)[C@H](CCC(=O)O)NC(=O)[C@H](CCCNC(=N)N)NC(=O)[C@@H](NC(=O)C(C)(C)NC(=O)[C@H](CCC(N)=O)NC(=O)[C@H](CCC(=O)O)NC(=O)[C@H](CCC(=O)O)NC(=O)[C@H](CC(C)C)NC(=O)[C@H](Cc1ccc(O)cc1)NC(=O)[C@H](CO)NC(=O)[C@H](CO)NC(=O)[C@@H](NC(=O)[C@@H](N)CC(=O)O)C(C)C)C(C)C)[C@@H](C)CC)C(C)C)C(N)=O [SEQ ID NO: 46] (H-DVSSYLEEQ[Aib]VREFIAWLVKGGPSSGAPPPSK(Palmitoyl)-NH2; N-terminus assumed)	700 (≈ 192 µM)
CCCCCCCCCCCCCCCC(=O)NCCCC[C@H](NC(=O)[C@H](CO)NC(=O)[C@@H]1CCCN1C(=O)[C@@H]1CCCN1C(=O)[C@@H]1CCCN1C(=O)[C@H](C)NC(=O)CNC(=O)[C@H](CO)NC(=O)[C@H](CO)NC(=O)[C@@H]1CCCN1C(=O)CNC(=O)CNC(=O)[C@H](CCCCN)NC(=O)C(C)(C)NC(=O)[C@H](CC(C)C)NC(=O)[C@H](Cc1c[nH]c2ccccc12)NC(=O)[C@H](C)NC(=O)[C@@H](NC(=O)[C@H](Cc1ccccc1)NC(=O)[C@H](CCC(=O)O)NC(=O)[C@H](CCCNC(=N)N)NC(=O)[C@@H](NC(=O)[C@H](C)NC(=O)[C@H](CCC(N)=O)NC(=O)[C@H](CCC(=O)O)NC(=O)[C@H](CCC(=O)O)NC(=O)[C@H](CC(C)C)NC(=O)[C@H](Cc1ccc(O)cc1)NC(=O)[C@H](CO)NC(=O)[C@H](CO)NC(=O)[C@@H](NC(=O)[C@@H](N)CC(=O)O)C(C)C)C(C)C)[C@@H](C)CC)C(N)=O [SEQ ID NO: 81] (H-DVSSYLEEQAVREFIAWL[Aib]KGGPSSGAPPPSK(Palmitoyl)-NH2; N-terminus assumed)	1600 (≈ 441 µM)
CCCCCCCCCCCCCCCC(=O)NCCCC[C@H](NC(=O)[C@H](CO)NC(=O)[C@@H]1CCCN1C(=O)[C@@H]1CCCN1C(=O)[C@@H]1CCCN1C(=O)[C@H](C)NC(=O)CNC(=O)[C@H](CO)NC(=O)[C@H](CO)NC(=O)[C@@H]1CCCN1C(=O)CNC(=O)CNC(=O)C(C)(C)NC(=O)[C@@H](NC(=O)[C@H](CCCCN)NC(=O)[C@H](Cc1c[nH]c2ccccc12)NC(=O)[C@H](C)NC(=O)[C@@H](NC(=O)[C@H](Cc1ccccc1)NC(=O)[C@H](CCC(=O)O)NC(=O)[C@H](CCCNC(=N)N)NC(=O)[C@@H](NC(=O)[C@H](C)NC(=O)[C@H](CCC(N)=O)NC(=O)[C@H](CCC(=O)O)NC(=O)[C@H](CCC(=O)O)NC(=O)[C@H](CC(C)C)NC(=O)[C@H](Cc1ccc(O)cc1)NC(=O)[C@H](CO)NC(=O)[C@H](CO)NC(=O)[C@@H](NC(=O)[C@@H](N)CC(=O)O)C(C)C)C(C)C)[C@@H](C)CC)C(C)C)C(N)=O [SEQ ID NO: 82]	100 (≈ 27.7 µM)
